For series [1], the system named is PSA mRNA expression in LNAR cells. Put plainly: PSA mRNA expression in LNAR cells (hormone refractory, over-express AR). It counts as cell-based.
Description: The cell line LNAR was used, which has been engineered to over-express AR (14). LNAR cells over-express AR and form hormone refractory tumors when xenografted in mice (14).
Series [2] deals with binding of LNCaP nuclear extract factors to the ARE site in the PSA promoter. The series is described as follows: Electrophoretic mobility shift assay with DHT-stimulated LNCaP nuclear extract. It counts as biochemical. As to the method: containing the PSA promoter ARE (underlined) was end-labeled with ^32P and annealed to its complement. Polyamides 1 and 2 were incubated with the duplex for 3 h in previously optimized buffer conditions (45). Nuclear extract from DHT-treated LNCaP cells (Genetex, San Antonio, Tex.) was then added for an additional 45 min. Complexes were run on a 5% polyacrylamide gel and visualized on a phosphorimager.
The effects of polyamides 1 and 2 on the binding of factors present in the nuclear extract isolated from DHT-stimulated LNCaP cells to the ARE site in the PSA promoter was measured by an electrophoretic mobility shift assay (FIG. 8D).
On the technique in general: In EMSA bound probe runs differently from free probe, usually more slowly.

Series [3] relates to p53 target genes. The series is described as follows: Quantitative RT-PCR of p53 target genes in LNCaP cells. The series is classed as cell-based. As to the method:
RNA was extracted using RNEasy columns (Qiagen) according to manufacturer's protocols. cDNA was generated from RNA by reverse transcriptase (Transcriptor First Strand cDNA kit, Roche). Quantitative real-time RT-PCR was performed using SYBR Green PCR Master Mix (Applied Biosystems) on an ABI 7300 instrument. mRNA was measured relative to B glucuronidase as an endogenous control.
The cells were then treated with 1, 3, and 10 μM of 78 for 72 h. Total cellular RNA was extracted using RNEasy columns (Qiagen) following the manufacturer's protocols. Isolated RNA was reverse transcribed with Transcriptor First Strand cDNA kit (Roche). Quantitative real-time PCR was performed using SYBR Green PCR Master Mix (Applied Biosystems) on an ABI 7300 instrument. Amplification of p21, IGFBP3, and GADD45A cDNA was measured relative to β-glucuronidase using previously published primers (24). Experiments were performed in biological replicates.

The test system of series [4] is FKBP5 mRNA expression in LNCaP cells. Put plainly: DHT-induced FKBP5 mRNA in LNCaP cells. It counts as cell-based.
Series [5] has as its system transcripts in DHT-stimulated LNCaP cells. Put plainly: Gene expression with Affymetrix Human Genome U133 Plus 2.0 arrays, DHT-stimulated LNCaP cells. It counts as cell-based. As to the method:
LNCaP cells were plated in 12-well plates at a density of 80-100×10^3 cells per well. Media, polyamide treatments, and time courses were the same as described above. Bicalutamide was added 2 h before DHT stimulation. RNA was isolated as described in ref. 21. From this point, experiments were carried out at the Millard and Muriel Jacobs Gene Expression Facility at the California Institute of Technology. Labeled mRNA was hybridized to Affymetrix high-density Human Genome U133 Plus 2.0 arrays according to established protocols. Gene expression was analyzed by using Resolver (Rosetta Biosoftware, Seattle, Wash.). Data were uploaded to the Gene Expression Omnibus repository (accession no. GSE7708).
Global effects of polyamides 1 and 2 and bicalutamide on gene expression in DHT-stimulated LNCaP cells were monitored with Affymetrix (Santa Clara, Calif.) high-density Human Genome U133 Plus 2.0 arrays, which interrogate >50,000 transcripts.

Series [6] has as its system duplex DNA containing the target site 5′-WGWWCW-3′. Put plainly: Thermal denaturation assay of DNA duplexes. The series is classed as binding. The conditions noted are these: duplex 5′-CGATGTTCAAGC-3′. As to the method: Polyamides 77 and 85 were incubated with duplex DNA 5′-[…]-3′ (SEQ ID NO:36), which contains the predicted target site for these compounds (underscore). Melting temperature analyses were performed on a Varian Cary 100 spectrophotometer as described (46). Melting temperatures were defined as a maximum of the first derivative of absorbance at 260 nm over the range of temperatures.
Thermal stabilization of the DNA oligo 5′-[…]-3′ (SEQ ID NO:37) by 77-80 (target sequence underlined) was determined as previously described (26).

A short description of series [7]: Multiple-dose subcutaneous injections, male C57BL/6J mice. The series is classed as in vivo. The conditions noted are these: 1 mg/kg SC every 3 days. In short, it runs like this: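 Eight-week-old male C57BL/6J mice (n=3 per group) received 1 mg/kg polyamide subcutaneously every 3 days for three injections and were sacrificed two days after the last dose. Serum was collected by retroorbital bleeding for analysis, and two mice per group underwent histopathology.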

Series [8] in a line: Liver microsomal stability, human. The conditions noted are these: 1 μM, Human, 1 hr at 37° C., 1 mg/ml microsomes.
Protocol: Briefly, each polyamide was incubated with 1 mg/ml human or mouse microsomes at 37° C. The reaction was incubated in 100 mM KH2PO4, 2 mM NADPH, 3 mM MgCl2 at pH 7.4. Samples were also incubated in the absence of NADPH to detect NADPH-free degradation. After 60 min the samples were mixed with an equal volume of ice cold methanol stop solution. The mixture was allowed to sit on ice for at least 10 min and mixed with an equal volume of water. The samples were then centrifuged to remove the precipitates and the samples were analyzed by LC/MS/MS. Data represents % remaining by comparing with time zero concentration. The experiments were performed in duplicate.
The subject of series [9] is PSA protein secretion by LNCaP cells. Put plainly: Secreted PSA protein by ELISA, LNCaP cells. The conditions noted are these: after DHT stimulation, compared with 2 or untreated control. The series is classed as cell-based. As to the method:
LNCaP cells (ATCC) were plated in 24-well plates at a density of 40-50×10^3 cells per well (80-100×10^3 cells per ml) in RPMI medium 1640 (ATCC) supplemented with 10% FBS (Irvine Scientific, Santa Ana, Calif.). After 72 h, the medium was replaced with RPMI medium 1640 containing 10% charcoal stripped FBS with or without polyamides at the designated concentrations. Cells were grown for an additional 48 h and then treated with 1 nM DHT for 16 h. When appropriate, bicalutamide was added 2 h before DHT stimulation. Isolation of RNA and cDNA synthesis was performed as described (21). Quantitative real-time RT-PCR was performed with SYBR Green PCR Master Mix (Applied Biosystems, Foster City, Calif.) on an ABI 7300 instrument. PSA mRNA was measured relative to β-glucuronidase as an endogenous control. Primer sequences are available upon request. Cell-culture supernatants were collected for an ELISA (R & D Systems, Minneapolis, Minn.) to measure PSA protein according to the manufacturer's protocol.
Background: ELISA stands for enzyme-linked immunosorbent assay.

[10] abbreviates: 10 μM, + DHT, relative to DHT-induced controls, p ≦ 0.01.
The mark [11] stands for this setting: relative to DHT-induced controls, + DHT.

Bounds are passed on as bounds.

As to `CN(CCCNC(=O)c1cccc(C(=O)O)c1)CCCNC(=O)c1cc(NC(=O)c2cc(NC(=O)c3cc(NC(=O)c4nc(NC(=O)[C@H](N)CCNC(=O)c5cc(NC(=O)c6cc(NC(=O)c7cc(NC(=O)c8nccn8C)cn7C)cn6C)cn5C)cn4C)cn3C)cn2C)cn1C` [Polyamide 1, ImPyPyPy-2-(R)H^2Nγ-ImPyPyPy-NHMe-IPA], the “effect on DHT-induced PSA mRNA expression in LNAR cells” value in [1] was “maintains efficacy”. Further, the “concentration inhibiting binding to the labeled duplex” value in series [2] was at least 10 nM. The “induction of p53 target genes” value in series [3] is “induced expression of p53 genes”. In [4], the “inhibition of DHT-induced expression of FKBP5” value was “≈ 60%”. Also, in series [5] (setting [10]), the “Number of transcripts down-regulated (fold change ≦ −2.0)” value came to 706, the “Number of transcripts down-regulated (fold change ≦ −4.0)” value was found to be 126, the “Number of transcripts up-regulated (fold change ≧ 2.0)” value worked out at 347 and the “Number of transcripts up-regulated (fold change ≧ 4.0)” value is on record as 42. Besides, in series [5] (10 μM, P≦0.01, vs DHT-induced controls), the “number of transcripts affected by at least 2-fold” value is reported as 1,053. The “share of interrogated transcripts affected” value in series [5] (10 μM, at least 2-fold) is reported as “less than 2%”. For the same compound, the “share of transcripts induced at least 4-fold by DHT whose expression is inhibited” value in series [5] (LNCaP cells) is “≈ 35%”. Also, in series [5] (P≦0.01), the “number of the 88 DHT-repressed transcripts derepressed at least 2-fold” value is recorded as “eight” and the “number of the 199 DHT-induced transcripts inhibited at least 2-fold” value is on record as 70. Also, in series [5] (setting [11]), the “Fold-change of FKBP5” value is listed as −3.1, the “Fold-change of KLK2” value was −2.4, the “Fold-change of KLK3 (PSA)” value was −3.3 and the “Fold-change of TMPRSS2” value is −2.3. For the same compound, in series [6], the “DNA thermal stability analysis” value is “comparable DNA binding”. Further, in series [7], the “liver and kidney histopathology” value was “mild multifocal hepatocellular necrosis and apoptosis in the liver and mild variable tubular attenuation, karyomegaly and epithelial necrosis and apoptosis in the kidney”; the “liver and kidney serum markers” value was “elevated AST and ALT”. For the same compound, the “weight and physical morbidity” value in series [7] (three injections, listed as 77) is recorded as “no loss in weight or physical morbidities”. Moreover, in series [8], the “Mean remaining parent NADPH-free” value amounted to 92.3% and the “Mean remaining parent with NADPH” value is given as 96.9%. In addition, the “supernatant concentrations of PSA protein” value in series [9] is recorded as “reduced”.

The record behind these values is US20170260169A1, “INHIBITORS FOR STEROID RESPONSE ELEMENTS AND RNA POLYMERASE II AND RELATED METHODS” (priority 2007, published 2017).
